Columns and labels:
[1] = Solubility studies of tadalafil in vegetable oils; assay type: physicochemical; conditions: such as olive oil, sunflower oil, safflower oil, soybean oil
From the text: Suspension formulations of tadalafil were initially produced in soybean oil, and in a mixture of hydrogenated and partially-hydrogenated soybean oil in order to produce a stable suspension.

[2] = cited from earlier work

solubility in vegetable oils [1]: practically insoluble
SMILES: CN1CC(=O)N2[C@H](c3ccc4c(c3)OCO4)c3[nH]c4ccccc4c3C[C@@H]2C1=O [Tadalafil, (6R,12aR)-6-(Benzo[d][1,3]dioxol-5-yl)-2-methyl-2,3,12,12a]
solubility in ethanol and other organic solvents ([2]; ethanol and other organic solvents): very slightly soluble
solubility in water ([2]; water): practically insoluble

Source: EP3510997B1, “SOFT GELATIN CAPSULES COMPRISING A SUSPENSION OF TADALAFIL” (Gap S.A., priority 2018, dated 2019)
